According to the supplement of paper PMC10307832:

How the values were obtained:
Assay in all cases: relative viability (nuclei count vs DMSO), 5 days (fraction); higher = more cells survive
Avagacestat + Phenformin = compound: NC(=O)[C@@H](CCC(F)(F)F)N(Cc1ccc(-c2ncon2)cc1F)S(=O)(=O)c1ccc(Cl)cc1 [Avagacestat] + N=C(N)NC(=N)NCCc1ccccc1 [Phenformin] (partner 250 µM)
How it was run: (§1)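 After 5 days of treatment, lung cancer cells in 1536-well plates were fixed and stained in a single step (final 0.05% Triton X-100, 1% formaldehyde, 1 ug/ml Hoechst) and their nuclei counted on 4× images. Treatment had been applied by pin tool the day after seeding as one drug alone or as a fixed anchor-drug dose with five library-drug doses (not always all listed) in √10 steps. Relative viability is the nuclei count of treated wells divided by that of vehicle wells, and values are medians of duplicate plates.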

Avagacestat + OSI-027 = compound: NC(=O)[C@@H](CCC(F)(F)F)N(Cc1ccc(-c2ncon2)cc1F)S(=O)(=O)c1ccc(Cl)cc1 [Avagacestat] + COc1cccc2cc(-c3nc([C@H]4CC[C@H](C(=O)O)CC4)n4ncnc(N)c34)[nH]c12 [OSI-027] (partner 0.5 µM)
How it was run: as §1

Avagacestat + Trametinib = compound: NC(=O)[C@@H](CCC(F)(F)F)N(Cc1ccc(-c2ncon2)cc1F)S(=O)(=O)c1ccc(Cl)cc1 [Avagacestat] + CC(=O)Nc1cccc(-n2c(=O)n(C3CC3)c(=O)c3c(Nc4ccc(I)cc4F)n(C)c(=O)c(C)c32)c1 [Trametinib] (partner 0.02 µM)
How it was run: as §1

Avagacestat + Crizotinib = compound: NC(=O)[C@@H](CCC(F)(F)F)N(Cc1ccc(-c2ncon2)cc1F)S(=O)(=O)c1ccc(Cl)cc1 [Avagacestat] + C[C@@H](Oc1cc(-c2cnn(C3CCNCC3)c2)cnc1N)c1c(Cl)ccc(F)c1Cl [Crizotinib] (partner 1 µM)
How it was run: as §1

Cell Line	relative viability (Avagacestat + Phenformin; first compound 0.08 µM)	relative viability (Avagacestat + Phenformin; first compound 0.253 µM)	relative viability (Avagacestat + Phenformin; first compound 0.8 µM)	relative viability (Avagacestat + Phenformin; first compound 2.53 µM)	relative viability (Avagacestat + Phenformin; first compound 8 µM)	relative viability (Avagacestat + OSI-027; first compound 0.08 µM)	relative viability (Avagacestat + OSI-027; first compound 0.253 µM)	relative viability (Avagacestat + OSI-027; first compound 0.8 µM)	relative viability (Avagacestat + OSI-027; first compound 2.53 µM)	relative viability (Avagacestat + OSI-027; first compound 8 µM)	relative viability (Avagacestat + Trametinib; first compound 0.08 µM)	relative viability (Avagacestat + Trametinib; first compound 0.253 µM)	relative viability (Avagacestat + Trametinib; first compound 0.8 µM)	relative viability (Avagacestat + Trametinib; first compound 2.53 µM)	relative viability (Avagacestat + Trametinib; first compound 8 µM)	relative viability (Avagacestat + Crizotinib; first compound 0.08 µM)	relative viability (Avagacestat + Crizotinib; first compound 0.253 µM)	relative viability (Avagacestat + Crizotinib; first compound 0.8 µM)	relative viability (Avagacestat + Crizotinib; first compound 2.53 µM)	relative viability (Avagacestat + Crizotinib; first compound 8 µM)
NCI-H358	0.357	0.352	0.391	0.323	0.325	0.895	0.79	0.768	0.682	0.738	0.14	0.114	0.129	0.127	0.119	0.555	0.579	0.457	0.609	0.545
NCI-H441	1.23	0.957	1.02	0.917	0.676	0.859	0.72	0.704	0.589	0.462	0.52	0.462	0.449	0.515	0.411	0.977	0.816	0.71	1.19	0.629
NCI-H460	0.597	0.866	0.771	0.337	0.379	0.953	1.19	0.752	0.551	0.418	0.223	0.143	0.13	0.112	0.1	1.86	1.69	0.977	0.893	0.853
NCI-H520	0.648	0.612	0.494	0.436	0.529	0.241	0.316	0.22	0.249	0.215	0.814	0.792	0.611	0.497	0.616	0.895	0.836	0.729	0.727	0.459
NCI-H596	0.78	0.717	0.867	0.699	0.653	0.81	0.814	0.688	0.734	0.593	0.741	0.783	0.794	0.817	0.7	1.1	0.944	1.02	0.78	0.925
NCI-H647	0.534	0.587	0.692	0.487	0.414	0.552	0.773	0.575	0.559	0.572	0.475	0.502	0.463	0.396	0.384	1.31	1.41	1.19	1.03	1.07
